Source: patent publication US8586354B2, “Adenoviruses, nucleic acids that code for the same and the use of said viruses” (priority 2003, dated 2013)

Tests used:
U373 tumour cells = assay: Southern blot of adenoviral replication in U373 cells after cytostatic; assay type: cell-based
Procedure: In order to determine the effect of Irinotecan on adenoviral replication 10^6 U373 tumour cells were plated in 10 cm^2 Petri dishes. In a first reaction 5 μM Irinotecan was added after 24 hours. After another 24 hours the cells were infected with 10 pfu/cell dl520. After incubation of 3 days without Irinotecan DNA was isolated in accordance with the procedure described in example 10.
In a parallel reaction the thus prepared U373-cells were not pre-incubated with Irinotecan. After 48 hours of cultivating the cells without Irinotecan, they were infected with 10 pfu/cell dl520 and subsequently incubated without Irinotecan for another 3 days. DNA was isolated as described above.
Subsequently 2 μg DNA were digested with restriction enzyme Kpn I and a Southern Blot analysis performed. A part of the adenoviral genome (position: 22734-24235) generated by means of PCR was used as a probe.
In order to test the effect of Trichostatin A on adenoviral replication, 10^6 U373 tumour cells were plated in 10 cm^2 Petri dishes. After 24 hours 0.25, 0.5 and 0.75 μM Trichostatin A was added. After another 24 hours the cells were infected with 10 pfu/cell dl520.
After 3 days of incubation in medium without Trichostatin DNA was isolated. Subsequently 2 μg DNA were digested with restriction enzyme Kpn I and a Southern Blot analysis performed. […]

HeLa cells = assay: Oncolytic assay with daunorubicine, HeLa; assay type: cell-based; settings: 40 ng/ml daunorubicine
Procedure: (§1) In the practising of the oncolytic assays the following procedure was followed: 200,000 cells (HeLa and U2OS, respectively) were plated into each well of a 6 well plate. On the next day 40 ng/ml (final concentration) of daunorubicine were added. After 3 hours of incubation the cells were infected with 10 and 30 pfu dl520/cell, respectively. Subsequently, the cells were incubated in cytostatic free medium. After 3-5 days the cells were stained using crystal violet.

U2OS cells = assay: Oncolytic assay with daunorubicine, U2OS; assay type: cell-based, human; settings: 40 ng/ml daunorubicine
Procedure: as §1

[1] = tested on: Coxsackievirus-adenovirus-receptor (CAR); assay: FACS analysis of CAR expression on U373 cells; assay type: cell-based; settings: 1 μM Trichostatin
Procedure: 200,000 U373 cells were plated in 6 well plates. After 24 hours the cells were cultivated with 1 μM Trichostatin for 24 hours. After another 24 hours the cells were isolated. Subsequently, analysis of CAR expression was performed according to a standard protocol using Facs-analysis and the primary antibody anti-CAR clone RmcB from the company Upstate, and a rabbit-anti-mouse FITC as secondary antibody (company DAKO).

CCc1c2c(nc3ccc(OC(=O)N4CCC(N5CCCCC5)CC4)cc13)-c1cc3c(c(=O)n1C2)COC(=O)[C@]3(O)CC [Irinotecan]
adenoviral replication (dl520) compared to untreated control (U373 tumour cells; 5 μM Irinotecan 24 h before 10 pfu/cell dl520, 3 days): significantly increased

COc1cccc2c1C(=O)c1c(O)c3c(c(O)c1C2=O)C[C@@](O)(C(C)=O)C[C@@H]3O[C@H]1C[C@H](N)[C@H](O)[C@H](C)O1 [daunorubicine]
effect on replication of dl520 (HeLa cells): induces the replication of dl520
effect on replication of dl520 (U2OS cells): induces the replication of dl520

CC(/C=C/C(=O)NO)=C\[C@@H](C)C(=O)c1ccc(N(C)C)cc1 [Trichostatin A]
adenoviral replication (dl520) compared to untreated controls (U373 tumour cells; 0.25, 0.5 and 0.75 μM Trichostatin A 24 h before 10 pfu/cell dl520, 3 days): significantly increased
CAR-positive cells [1]: 56.2%
